The values that follow come from patent US20250340551A1, “SMALL MOLECULE MODULATORS OF STAT6” (Gilead Sciences, Inc., priority 2024, published 2025).

Molecules are shown by their SMILES.

Chain of human STAT6 (P42226 122-658): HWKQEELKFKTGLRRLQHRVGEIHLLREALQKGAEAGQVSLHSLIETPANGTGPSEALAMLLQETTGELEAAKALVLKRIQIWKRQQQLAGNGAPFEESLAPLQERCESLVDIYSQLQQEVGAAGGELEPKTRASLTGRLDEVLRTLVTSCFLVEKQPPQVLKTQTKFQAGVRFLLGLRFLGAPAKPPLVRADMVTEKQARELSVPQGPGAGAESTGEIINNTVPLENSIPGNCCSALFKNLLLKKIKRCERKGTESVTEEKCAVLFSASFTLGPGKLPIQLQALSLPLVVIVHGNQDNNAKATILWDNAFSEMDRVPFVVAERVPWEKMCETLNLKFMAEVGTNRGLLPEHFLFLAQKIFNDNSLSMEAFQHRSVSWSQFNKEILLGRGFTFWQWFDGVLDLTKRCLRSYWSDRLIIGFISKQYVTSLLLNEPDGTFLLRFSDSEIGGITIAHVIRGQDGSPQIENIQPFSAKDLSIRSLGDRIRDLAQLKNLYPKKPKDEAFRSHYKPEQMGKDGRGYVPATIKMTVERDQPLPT

This assay concerns the target human STAT6 (Homo sapiens (Human), UniProt P42226). Kind of assay: Surface plasmon resonance assay (Biacore 8K, binding to immobilized STAT6). The settings on record: human STAT6 aa122-658, N-terminal His-tag, CM5 chip, 25° C.; geometric mean; read-out: STAT6 SPR Kd. The method, boiled down: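 Run at 25° C with His-tagged STAT6 aa122-658 (insect-cell expressed) amine-coupled to a CM5 chip, reference-subtracted, in PBS-P+ with 2% DMSO. Multi-cycle kinetics: 60 sec. contact, up to 300 sec. dissociation. Affinity fitted from late report-point binding isotherms, with Rmax both free and fixed to theoretical 1:1.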
By Kd is commonly meant the constant that tells how readily two partners part at equilibrium. With `CN(C)C(=O)c1ccc(C2CCN(Cc3cc4c(-c5cnc(N)c(N(C)C)c5)ccnc4n3C)CC2)cc1` [Example 1k47, 4-[1-[[4-[6-Amino-5-(dimethylamino)-3-pyridyl]-1-methyl-pyrrolo[2,3-b]pyridin-2-yl]methyl]-4-piperidyl]-N,N-dimethyl-benzamide], the Kd came out at 1210 nM.

Regarding `CN(C)C(=O)c1ccc(C2CCN(Cc3cc4c(-c5cnc(N)c(OC(F)(F)F)c5)ccnc4n3C)CC2)cc1` [Example 1k48, 4-[1-[[4-[6-Amino-5-(trifluoromethoxy)-3-pyridyl]-1-methyl-pyrrolo[2,3-b]pyridin-2-yl]methyl]-4-piperidyl]-N,N-dimethyl-benzamide], the Kd was 8230 nM.

For `CN(C)C(=O)c1ccc(C2CCN(Cc3cc4c(-c5cnc(N)cc5CO)ccnc4n3C)CC2)cc1` [Example 1k49, 4-[1-[[4-[6-Amino-4-(hydroxymethyl)-3-pyridyl]-1-methyl-pyrrolo[2,3-b]pyridin-2-yl]methyl]-4-piperidyl]-N,N-dimethyl-benzamide], the Kd came out at 148 nM.

For the compound `CN(C)C(=O)c1ccc(C2CCN(Cc3cc4c(-c5cnc(N)c(O)c5)ccnc4n3C)CC2)cc1` [Example 1k50, 4-[1-[[4-(6-Amino-5-hydroxy-3-pyridyl)-1-methyl-pyrrolo[2,3-b]pyridin-2-yl]methyl]-4-piperidyl]-N,N-dimethyl-benzamide], the Kd amounted to 557 nM.

With `CN(C)C(=O)c1ccc(C2CCN(Cc3cc4c(-c5cnc(N)cc5C(F)F)ccnc4n3C)CC2)cc1` [Example 1k52, 4-[1-[[4-[6-Amino-4-(difluoromethyl)-3-pyridyl]-1-methyl-pyrrolo[2,3-b]pyridin-2-yl]methyl]-4-piperidyl]-N,N-dimethyl-benzamide], the Kd is 53.5 nM.

As for `CN(C)C(=O)c1ccc(C2CCN(Cc3cc4c(-c5cnc(N)cc5C#N)ccnc4n3C)CC2)cc1` [Example 1k53, 4-[1-[[4-(6-Amino-4-cyano-3-pyridyl)-1-methyl-pyrrolo[2,3-b]pyridin-2-yl]methyl]-4-piperidyl]-N,N-dimethyl-benzamide], the Kd was found to be 962 nM.

With `CN(C)C(=O)c1ccc(C2CCN(Cc3cc4c(-c5cnc(N)nn5)ccnc4n3C)CC2)cc1` [Example 1k54, 4-[1-[[4-(3-Amino-1,2,4-triazin-6-yl)-1-methyl-pyrrolo[2,3-b]pyridin-2-yl]methyl]-4-piperidyl]-N,N-dimethyl-benzamide], the Kd was determined as 104 nM.

`CN(C)C(=O)c1ccc(C2CCN(Cc3cc4c(-c5c(C(F)F)cc(N)cc5C(F)F)ccnc4n3C)CC2)cc1` [Example 1k55, 4-[1-[[4-[4-Amino-2,6-bis(difluoromethyl)phenyl]-1-methyl-pyrrolo[2,3-b]pyridin-2-yl]methyl]-4-piperidyl]-N,N-dimethyl-benzamide]: the Kd came out at 1010 nM.

As for `COC(=O)c1cc(N)ncc1-c1ccnc2c1cc(CN1CCC(c3ccc(C(=O)N(C)C)cc3)CC1)n2C` [Example 1k56, Methyl 2-amino-5-[2-[[4-[4-(dimethylcarbamoyl)phenyl]-1-piperidyl]methyl]-1-methyl-pyrrolo[2,3-b]pyridin-4-yl]pyridine-4-carboxylate], the Kd came out at 1400 nM.

With `CN(C)C(=O)c1ccc(C2CCN(Cc3cc4c(-c5cnc(N)c(C#N)n5)ccnc4n3C)CC2)cc1` [Example 1k57, 4-[1-[[4-(5-Amino-6-cyano-pyrazin-2-yl)-1-methyl-pyrrolo[2,3-b]pyridin-2-yl]methyl]-4-piperidyl]-N,N-dimethyl-benzamide], the Kd worked out at 766 nM.

As to `CN(C)C(=O)c1ccc(C2CCN(Cc3cc4c(-c5ccc(N)nc5CO)ccnc4n3C)CC2)cc1` [Example 1k58, 4-[1-[[4-[6-Amino-2-(hydroxymethyl)-3-pyridyl]-1-methyl-pyrrolo[2,3-b]pyridin-2-yl]methyl]-4-piperidyl]-N,N-dimethyl-benzamide], the Kd was 60.8 nM.

As for `COCCNc1ccc(-c2ccnc3c2cc(CN2CCC(c4ccc(C(=O)N(C)C)cc4)CC2)n3C)cn1` [Example 1k59, 4-[1-[[4-[6-(2-Methoxyethylamino)-3-pyridyl]-1-methyl-pyrrolo[2,3-b]pyridin-2-yl]methyl]-4-piperidyl]-N,N-dimethyl-benzamide], the Kd was 57.3 nM.

Take `CN(C)C(=O)c1ccc(C2CCN(Cc3cc4c(-c5ccc(N)c(-c6nnn[nH]6)c5)ccnc4n3C)CC2)cc1` [Example 1k60, 4-[1-[[4-[4-Amino-3-(2H-tetrazol-5-yl)phenyl]-1-methyl-pyrrolo[2,3-b]pyridin-2-yl]methyl]-4-piperidyl]-N,N-dimethyl-benzamide]: the Kd came to 35.9 nM.

In the case of `CN(C)C(=O)c1ccc(C2CCN(Cc3cc4c(-c5ccc(NCCO)nc5)ccnc4n3C)CC2)cc1` [Example 1k61, 4-[1-[[4-[6-(2-Hydroxyethylamino)-3-pyridyl]-1-methyl-pyrrolo[2,3-b]pyridin-2-yl]methyl]-4-piperidyl]-N,N-dimethyl-benzamide], the Kd came out at 16.5 nM.

With `CN(C)C(=O)c1ccc(C2CCN(Cc3cc4c(-c5ccc(NCC(=O)O)nc5)ccnc4n3C)CC2)cc1` [Example 1k63, 2-[[5-[2-[[4-[4-(Dimethylcarbamoyl)phenyl]-1-piperidyl]methyl]-1-methyl-pyrrolo[2,3-b]pyridin-4-yl]-2-pyridyl]amino]acetic acid], the Kd turned out to be 16.3 nM.

Turning to `CN(C)C(=O)c1ccc(C2CCN(Cc3cc4c(-c5cnc(N)c(-c6nnn[nH]6)c5)ccnc4n3C)CC2)cc1` [Example 1k64, 4-[1-[[4-[6-Amino-5-(2H-tetrazol-5-yl)-3-pyridyl]-1-methyl-pyrrolo[2,3-b]pyridin-2-yl]methyl]-4-piperidyl]-N,N-dimethyl-benzamide], the Kd came out at 1700 nM.

In the case of `Cc1cc(N)nc(C)c1-c1ccnc2c1cc(CN1CCC(c3ccc(C(=O)N(C)C)cc3)CC1)n2C` [Example 1k65, 4-[1-[[4-(6-Amino-2,4-dimethyl-3-pyridyl)-1-methyl-pyrrolo[2,3-b]pyridin-2-yl]methyl]-4-piperidyl]-N,N-dimethyl-benzamide], the Kd was determined as 254 nM.

For the compound `CN(C)C(=O)c1ccc(C2CCN(Cc3cc4c(-c5ccc(N)nn5)ccnc4n3C)CC2)cc1` [Example 1k68, 4-[1-[[4-(6-Aminopyridazin-3-yl)-1-methyl-pyrrolo[2,3-b]pyridin-2-yl]methyl]-4-piperidyl]-N,N-dimethyl-benzamide], the Kd was determined as 13.5 nM.

As for `[2H]C([2H])([2H])N(C(=O)c1ccc(C2CCN(Cc3cc4c(-c5ccc(NC)cn5)ccnc4n3C)CC2)cc1)C([2H])([2H])[2H]` [Example 1k70, 4-[1-[[1-methyl-4-[5-(methylamino)-2-pyridyl]pyrrolo[2,3-b]pyridin-2-yl]methyl]-4-piperidyl]-N,N-bis(trideuteriomethyl)benzamide], the Kd turned out to be 51.9 nM.

As for `CN(C)C(=O)c1ccc(C2CCN(Cc3cc4c(-c5ncc(N)cc5F)ccnc4n3C)CC2)cc1` [Example 1k72, 4-[1-[[4-(5-Amino-3-fluoro-2-pyridyl)-1-methyl-pyrrolo[2,3-b]pyridin-2-yl]methyl]-4-piperidyl]-N,N-dimethyl-benzamide], the Kd was determined as 75.1 nM.

Take `CN(C)C(=O)c1ccc(C2CCN(Cc3cc4c(-c5ncc(N)cc5C(F)(F)F)ccnc4n3C)CC2)cc1` [Example 1k74, 4-[1-[[4-[5-Amino-3-(trifluoromethyl)-2-pyridyl]-1-methyl-pyrrolo[2,3-b]pyridin-2-yl]methyl]-4-piperidyl]-N,N-dimethyl-benzamide]: the Kd was 7290 nM.

Regarding `CN(C)C(=O)c1ccc(C2CCN(Cc3cc4c(-c5ccc(N)c(C#N)n5)ccnc4n3C)CC2)cc1` [Example 1k75, 4-(1-((4-(5-Amino-6-cyanopyridin-2-yl)-1-methyl-1H-pyrrolo[2,3-b]pyridin-2-yl)methyl)piperidin-4-yl)-N,N-dimethylbenzamide], the Kd is 83.9 nM.

With `CN(C)C(=O)c1ccc(C2CCN(Cc3cc4c(-c5ccc(N)c(C(F)(F)F)n5)ccnc4n3C)CC2)cc1` [Example 1k76, 4-[1-[[4-[5-Amino-6-(trifluoromethyl)-2-pyridyl]-1-methyl-pyrrolo[2,3-b]pyridin-2-yl]methyl]-4-piperidyl]-N,N-dimethyl-benzamide], the Kd came to 999 nM.

For `CN(C)C(=O)c1ccc(C2CCN(Cc3cc4c(-c5ccc(N)c(Cl)n5)ccnc4n3C)CC2)cc1` [Example 1k77, 4-(1-((4-(5-Amino-6-chloropyridin-2-yl)-1-methyl-1H-pyrrolo[2,3-b]pyridin-2-yl)methyl)piperidin-4-yl)-N,N-dimethylbenzamide], the Kd is 52.3 nM.

On to `CCOC(=O)c1nc(-c2ccnc3c2cc(CN2CCC(c4ccc(C(=O)N(C)C)cc4)CC2)n3C)ccc1N` [Example 1k78, Ethyl 3-amino-6-(2-((4-(4-(dimethylcarbamoyl)phenyl)piperidin-1-yl)methyl)-1-methyl-1H-pyrrolo[2,3-b]pyridin-4-yl)picolinate], for which the Kd came out at 59.3 nM.

`CN(C)C(=O)c1ccc(C2CCN(Cc3cc4c(-c5ccc(N)c(C#N)c5)ccnc4n3C)CC2)cc1` [Example 1k80, 4-(1-((4-(4-Amino-3-cyanophenyl)-1-methyl-1H-pyrrolo[2,3-b]pyridin-2-yl)methyl)piperidin-4-yl)-N,N-dimethylbenzamide]: the Kd is 52.1 nM.

Take `CN(C)C(=O)c1ccc(C2CCN(Cc3cc4c(-c5ccc6[nH]cc(C(=O)C(F)(F)F)c6c5)ccnc4n3C)CC2)cc1` [Example 1m145, N,N-dimethyl-4-(1-((1-methyl-4-(3-(2,2,2-trifluoroacetyl)-1H-indol-5-yl)-1H-pyrrolo[2,3-b]pyridin-2-yl)methyl)piperidin-4-yl)benzamide]: the Kd was found to be 253 nM.

`C[C@@H]1CN(c2ccc(C(=O)N(C)C)cc2)CCN1Cc1cc2c(-c3ccc(N)nc3)ccnc2n1C` [Example 1n4, 4-[(3R)-4-[[4-(6-amino-3-pyridyl)-1-methyl-pyrrolo[2,3-b]pyridin-2-yl]methyl]-3-methyl-piperazin-1-yl]-N,N-dimethyl-benzamide]: the dissociation constant Kd was found to be 147 nM.
